According to patent US20260166162A1, “CARBON CHAIN SUBSTANCE FOR REGULATING TRANSMEMBRANE TRANSPORT AND FLUIDITY OF CELL MEMBRANES, AND PREPARATION AND USE THEREOF” (priority 2022, published 2026):
Read-outs that look alike come from different tables or passages of the source.

Columns and labels:
H5N1 pseudovirus = type: cell-based, Influenza pseudovirus H5N1-Fluc
Streptococcus pneumoniae = test: Bacteriostasis/sterilization test (plate count); type: cell-based
[1] = system: Methicillin-resistant Staphylococcus aureus; test: Bacteriostasis/sterilization test (plate count); type: cell-based; conditions: 0.035 mM (Table 25)
H7N9 pseudovirus = type: cell-based, Influenza pseudovirus H7N9-Fluc
Pseudomonas aeruginosa = test: Bacteriostasis/sterilization test (plate count); type: cell-based
SARS-CoV-2 pseudovirus [2] = system: SARS-CoV-2 pseudovirus; parameters: species or system SARS-CoV-2 pseudovirus B.1.526.2
VERO E6 cells = test: Cytotoxicity (CCK-8) on VERO E6 cells; conditions: […] to 0.035 mM
[3] = mouse, in vivo, po
SARS-CoV-2 pseudovirus [4] = type: cell-based, SARS-CoV-2 pseudovirus B.1.526.2
HIV pseudovirus = type: cell-based, HIV pseudovirus HIV18A-41
Staphylococcus aureus = test: Bacteriostasis/sterilization test (plate count); type: cell-based; conditions: for inhibition rate: concentration 0.035 mM; for IC50: read-out: half inhibition concentration
Klebsiella pneumoniae = test: Bacteriostasis/sterilization test (plate count); type: cell-based
Escherichia coli = test: Bacteriostasis/sterilization test (plate count); type: cell-based
[5] = system: Human hair follicle stem cells; test: Human hair follicle stem cell proliferation (EdU); type: cell-based; conditions: 20 μM, 30 μM, 50 μM, 6 h
[6] = system: HPV pseudovirus (HPV6-GFP); conditions: read-out: median neutralization concentration
TNF-α [7] = test: Skin photoaging (UVB) in BALB/c nude mice, serum TNF-α (Example II-54, Table II-32); type: in vivo, mouse; conditions: UVB-irradiated BALB/c nude mice, 40 days
IL-1β [8] = test: Skin photoaging (UVB) in BALB/c nude mice, serum IL-1β (Example II-54, Table II-33); type: in vivo, mouse; conditions: serum, UVB-irradiated BALB/c nude mice, 40 days
TNF-α [9] = test: LPS inflammatory aging in C57BL/6 mice, serum TNF-α (Example II-55, Table II-37); type: in vivo, mouse; conditions: 1 mM, 200 μl/time once a day for 30 days, LPS C57BL/6 mice
IL-6 [10] = test: LPS inflammatory aging in C57BL/6 mice, serum IL-6 (Example II-55, Table II-36); type: in vivo, mouse; conditions: 1 mM, 200 μl/time once a day for 30 days; serum, LPS C57BL/6 mice
IL-6 [11] = test: Skin photoaging (UVB) in BALB/c nude mice, serum IL-6 (Example II-54, Table II-34); type: in vivo, mouse; conditions: serum, UVB-irradiated BALB/c nude mice, 40 days
IL-1β [12] = test: LPS inflammatory aging in C57BL/6 mice, serum IL-1β (Example II-55, Table II-35); type: in vivo, mouse; conditions: 1 mM, 200 μl/time, once a day, 30 days
Hela cells = test: Cell membrane fluidity (Laurdan fluorescence recovery) in Hela cells; type: cell-based

## CCC=CCC=CCC=CCC=CCC=CCC=CCCC(=O)NCCCCC(N)C(=O)O (stereo not shown)
H5N1 pseudovirus
  Sterilization rate (%): 99%
Streptococcus pneumoniae
  Inhibition rate (%): 99%
[1]
  Inhibition rate (%): 99%
H7N9 pseudovirus
  Sterilization rate (%): 99%
Pseudomonas aeruginosa
  Inhibition rate (%): 99%
SARS-CoV-2 pseudovirus [2]
  membrane structure of the virus (TEM): broken
VERO E6 cells
  effect of the complex on cells: less than 10%
[3]
  liver, heart, kidney, bone/hepatobiliary function in blood versus control group: no difference
  physiological state, body weight, fur color, food consumption, mental state versus control group: not significantly different
SARS-CoV-2 pseudovirus [4]
  Sterilization rate (%): 99%
HIV pseudovirus
  Sterilization rate (%): 99%
Staphylococcus aureus
  Inhibition rate (%): 99%
  inhibition rate: greater than 99%
  IC50: 9 µM
Klebsiella pneumoniae
  Inhibition rate (%): 99%
Escherichia coli
  Inhibition rate (%): 99%

## CCC=CCC=CCC=CCC=CCC=CCC=CCCC(=O)OCC(N)C(=O)O (stereo not shown)
H5N1 pseudovirus
  Sterilization rate (%): 99%
Streptococcus pneumoniae; 0.035 mM (Table 25)
  Inhibition rate (%): 99%
[1]
  Inhibition rate (%): 99%
H7N9 pseudovirus
  Sterilization rate (%): 99%
Pseudomonas aeruginosa; 0.035 mM (Table 25)
  Inhibition rate (%): 99%
[5]
  proliferation of human hair follicle stem cells: effectively promote the proliferation
[6]
  IC50: 9 µM
SARS-CoV-2 pseudovirus [4]
  Sterilization rate (%): 99%
HIV pseudovirus
  Sterilization rate (%): 99%
Staphylococcus aureus; 0.035 mM (Table 25)
  Inhibition rate (%): 99%
Staphylococcus aureus
  inhibition rate: greater than 99%
  IC50: 9 µM
Klebsiella pneumoniae; 0.035 mM (Table 25)
  Inhibition rate (%): 99%
Escherichia coli; 0.035 mM (Table 25)
  Inhibition rate (%): 99%

## CCC=CCC=CCC=CCC=CCC=CCC=CCCC(=O)OC(C)C(N)C(=O)O (stereo not shown)
TNF-α [7]; 30 μM smeared
  TNF-α: 53 pg/mL
TNF-α [7]; 50 μM smeared
  TNF-α: 47 pg/mL
TNF-α [7]; 100 μM smeared
  TNF-α: 49 pg/mL
IL-1β [8]; 30 μM smeared
  IL-1β: 54 pg/mL
IL-1β [8]; 50 μM smeared
  IL-1β: 56 pg/mL
IL-1β [8]; 100 μM smeared
  IL-1β: 50 pg/mL
TNF-α [9]
  TNF-α: 53 pg/mL
H5N1 pseudovirus
  Sterilization rate (%): 99%
Streptococcus pneumoniae; 0.035 mM (Table 25)
  Inhibition rate (%): 99%
[1]
  Inhibition rate (%): 99%
H7N9 pseudovirus
  Sterilization rate (%): 99%
Pseudomonas aeruginosa; 0.035 mM (Table 25)
  Inhibition rate (%): 99%
IL-6 [10]
  IL-6: 50 pg/mL
SARS-CoV-2 pseudovirus [2]
  membrane structure of the virus (TEM): broken
IL-6 [11]; 30 μM smeared
  IL-6: 36 pg/mL
IL-6 [11]; 50 μM smeared
  IL-6: 35 pg/mL
IL-6 [11]; 100 μM smeared
  IL-6: 34 pg/mL
IL-1β [12]
  IL-1β: 55 pg/mL
Hela cells; 2 nM, 20 s
  Fluorescence recovery rate %: 65.48%
Hela cells; 2 nM, 40 s
  Fluorescence recovery rate %: 66.31%
Hela cells; 2 nM, 60 s
  Fluorescence recovery rate %: 66.25%
Hela cells; 2 nM, 80 s
  Fluorescence recovery rate %: 66.78%
Hela cells; 5 nM, 20 s
  Fluorescence recovery rate %: 65.47%
Hela cells; 5 nM, 40 s
  Fluorescence recovery rate %: 65.23%
Hela cells; 5 nM, 60 s
  Fluorescence recovery rate %: 65.38%
Hela cells; 5 nM, 80 s
  Fluorescence recovery rate %: 66.45%
Hela cells; 10 nM, 20 s
  Fluorescence recovery rate %: 65.89%
Hela cells; 10 nM, 40 s
  Fluorescence recovery rate %: 66.04%
Hela cells; 10 nM, 60 s
  Fluorescence recovery rate %: 66.59%
Hela cells; 10 nM, 80 s
  Fluorescence recovery rate %: 66.71%
Hela cells; 50 nM, 20 s
  Fluorescence recovery rate %: 67.42%
Hela cells; 50 nM, 40 s
  Fluorescence recovery rate %: 67.43%
Hela cells; 50 nM, 60 s
  Fluorescence recovery rate %: 67.57%
Hela cells; 50 nM, 80 s
  Fluorescence recovery rate %: 68.06%
Hela cells; 50 μM, 20 s
  Fluorescence recovery rate %: 66.54%
Hela cells; 50 μM, 40 s
  Fluorescence recovery rate %: 73.45%
Hela cells; 50 μM, 60 s
  Fluorescence recovery rate %: 77.91%
Hela cells; 50 μM, 80 s
  Fluorescence recovery rate %: 84.66%
Hela cells; 100 μM, 20 s
  Fluorescence recovery rate %: 66.60%
Hela cells; 100 μM, 40 s
  Fluorescence recovery rate %: 74.67%
Hela cells; 100 μM, 60 s
  Fluorescence recovery rate %: 78.31%
Hela cells; 100 μM, 80 s
  Fluorescence recovery rate %: 86.44%
SARS-CoV-2 pseudovirus [4]
  Sterilization rate (%): 99%
HIV pseudovirus
  Sterilization rate (%): 99%
Staphylococcus aureus; 0.035 mM (Table 25)
  Inhibition rate (%): 99%
Staphylococcus aureus
  inhibition rate: greater than 99%
  IC50: 9 µM
Klebsiella pneumoniae; 0.035 mM (Table 25)
  Inhibition rate (%): 99%
Escherichia coli; 0.035 mM (Table 25)
  Inhibition rate (%): 99%
